Values after ≈ are worked out from the molar mass of the structure shown. Values belong to the molecule of their own block, whether it stands above or below them.
Legend:
Assay in all cases: antimicrobial activity, broth dilution method
Assay type in all cases: cell-based
[1] = test system: Streptococcus pyogenes MH-771; details: Streptococcus pyogenes, MH771, Streptococcus pyogenes MH-771, drug-resistant clinical isolate; read-out: minimum inhibitory concentration (MIC)
Experimental: (§1) Antimicrobial activity of the new antibiotics according to the present invention was measured on various pathogenic microorganisms by the broth dilution mehtod. Tab. […] The new antibiotics show a similar antimicrobial spectrum to that of tylosin as shown in Tab. 4. All the compounds have an excellent antimicrobial activity mainly on gram-positive bacteria. […] Test microorganisms with an asterisk mark (*) in Tab. 4 are all drug-resistant strains that were clinically isolated. More in detail, Staphylococcus aureus MS-8710 is resistant to tylosin, penicillin, tetracycline, erythromycin and leucomycin. Staphylococcus aureus MS-9931 is resistant to tylosin, penicillin, erythromycin, tetracycline, leucomycin, spiramycin and josamycin. And also Streptococcus piogenes is resistant to tylosin, erythromycin, oleandomycin and leucomycin.

[2] = test system: Staphylococcus aureus MS-9931; details: MS9931; Staphylococcus aureus MS-9931, drug-resistant clinical isolate; read-out: minimum inhibitory concentration (MIC)
Experimental: as §1

[3] = test system: Staphylococcus aureus SMITH; details: Staphylococcus aureus, Staphylococcus aureus SMITH; broth dilution; read-out: minimum inhibitory concentration (MIC)
Experimental: as §1

Sarcina lutea ATCC 9341 = details: Micrococcus luteus, ATCC9341, Sarcina lutea ATCC 9341, read-out: minimum inhibitory concentration (MIC)
Experimental: as §1

[4] = test system: Staphylococcus aureus MS-8710; details: Staphylococcus aureus, MS8710, Staphylococcus aureus MS-8710, drug-resistant clinical isolate; read-out: minimum inhibitory concentration (MIC)
Experimental: as §1

[5] = test system: Staphylococcus aureus MS-9937; details: MS9937; Staphylococcus aureus MS-9937, drug-resistant clinical isolate; read-out: minimum inhibitory concentration (MIC)
Experimental: as §1

[6] = test system: Staphylococcus aureus FDA-209P; details: Staphylococcus aureus, FDA209P, Staphylococcus aureus FDA-209P; broth dilution; read-out: minimum inhibitory concentration (MIC)
Experimental: as §1

[7] = test system: Bacillus cereus ATCC 9634; details: Bacillus cereus, ATCC9634, Bacillus cereus ATCC 9634; broth dilution; read-out: minimum inhibitory concentration (MIC)
Experimental: as §1

SMILES: CCC1OC(=O)CC(OC(C)=O)C(C)C(OC2OC(C)C(OC3CC(C)(O)C(OC(=O)CCc4ccccc4)C(C)O3)C(N(C)C)C2O)C(CC=O)CC(C)C(=O)C=CC(C)=CC1COC1OC(C)C(O)C(OC)C1OC (stereo not drawn) [Compound 25, 3-acetyl-4"-β-phenylpropionyltylosin]
MIC [1]: 25 µg/mL (≈ 22.9 µM)
MIC [2]: 50 µg/mL (≈ 45.9 µM)
MIC [3]: 0.78 µg/mL (≈ 0.715 µM)
MIC (Sarcina lutea ATCC 9341): 0.39 µg/mL (≈ 0.358 µM)
MIC [4]: 50 µg/mL (≈ 45.9 µM)
MIC [5]: 50 µg/mL (≈ 45.9 µM)
MIC [6]: 1.56 µg/mL (≈ 1.43 µM)
MIC [7]: 0.78 µg/mL (≈ 0.715 µM)

SMILES: CCC1OC(=O)CC(OC(C)=O)C(C)C(OC2OC(C)C(OC3CC(C)(O)C(O)C(C)O3)C(N(C)C)C2OC(C)=O)C(CC=O)CC(C)C(=O)C=CC(C)=CC1COC1OC(C)C(OC(=O)CCl)C(OC)C1OC (stereo not drawn) [Compound 3, 3,2'-diacetyl-4'"-monochloroacetyltylosin]
MIC [1]: 100 µg/mL (≈ 92.9 µM)
MIC [2]: 100 µg/mL (≈ 92.9 µM)
MIC [3]: 1.56 µg/mL (≈ 1.45 µM)
MIC (Sarcina lutea ATCC 9341): 0.78 µg/mL (≈ 0.724 µM)
MIC [4]: 100 µg/mL (≈ 92.9 µM)
MIC [5]: 100 µg/mL (≈ 92.9 µM)
MIC [6]: 1.56 µg/mL (≈ 1.45 µM)
MIC [7]: 1.56 µg/mL (≈ 1.45 µM)

SMILES: CCC1OC(=O)CC(O)C(C)C(OC2OC(C)C(OC3CC(C)(O)C(OC(=O)COc4ccccc4)C(C)O3)C(N(C)C)C2O)C(CC=O)CC(C)C(=O)C=CC(C)=CC1COC1OC(C)C(O)C(OC)C1OC (stereo not drawn) [Compound 44, 4"-phenoxyacetyltylosin]
MIC [1]: 6.25 µg/mL (≈ 5.95 µM)
MIC [2]: 25 µg/mL (≈ 23.8 µM)
MIC [3]: 0.39 µg/mL (≈ 0.371 µM)
MIC (Sarcina lutea ATCC 9341): 0.19 µg/mL (≈ 0.181 µM)
MIC [4]: 25 µg/mL (≈ 23.8 µM)
MIC [5]: 25 µg/mL (≈ 23.8 µM)
MIC [6]: 0.39 µg/mL (≈ 0.371 µM)
MIC [7]: 0.78 µg/mL (≈ 0.743 µM)

SMILES: CCC1OC(=O)CC(OC(C)=O)C(C)C(OC2OC(C)C(OC3CC(C)(O)C(O)C(C)O3)C(N(C)C)C2OC(C)=O)C(CC=O)CC(C)C(=O)C=CC(C)=CC1COC1OC(C)C(OC(=O)C(Cl)(Cl)Cl)C(OC)C1OC (stereo not drawn) [Compound 4, 3,2'-diacetyl-4'"-trichloroacetyltylosin]
MIC [1]: 100 µg/mL (≈ 87.3 µM)
MIC [2]: 100 µg/mL (≈ 87.3 µM)
MIC [3]: 1.56 µg/mL (≈ 1.36 µM)
MIC (Sarcina lutea ATCC 9341): 0.39 µg/mL (≈ 0.34 µM)
MIC [4]: 100 µg/mL (≈ 87.3 µM)
MIC [5]: 100 µg/mL (≈ 87.3 µM)
MIC [6]: 1.56 µg/mL (≈ 1.36 µM)
MIC [7]: 1.56 µg/mL (≈ 1.36 µM)

SMILES: CCCCCCCC(=O)OC1C(C)OC(OC2C(C)OC(OC3C(CC=O)CC(C)C(=O)C=CC(C)=CC(COC4OC(C)C(O)C(OC)C4OC)C(CC)OC(=O)CC(O)C3C)C(O)C2N(C)C)CC1(C)O (stereo not drawn) [Compound 9, 4"-n-caprylyl(or n-octanoyl)tylosin]
MIC [1]: 25 µg/mL (≈ 24 µM)
MIC [2]: 25 µg/mL (≈ 24 µM)
MIC [3]: 0.78 µg/mL (≈ 0.748 µM)
MIC (Sarcina lutea ATCC 9341): 0.39 µg/mL (≈ 0.374 µM)
MIC [4]: 25 µg/mL (≈ 24 µM)
MIC [5]: 25 µg/mL (≈ 24 µM)
MIC [6]: 0.78 µg/mL (≈ 0.748 µM)
MIC [7]: 1.56 µg/mL (≈ 1.5 µM)

SMILES: CCC1OC(=O)CC(OC(C)=O)C(C)C(OC2OC(C)C(OC3CC(C)(O)C(OC(=O)C(O)c4ccccc4)C(C)O3)C(N(C)C)C2O)C(CC=O)CC(C)C(=O)C=CC(C)=CC1COC1OC(C)C(O)C(OC)C1OC [Compound 18, 3-acetyl-4"-L-(α-hydroxyphenylacetyl)tylosin]
MIC [3]: 0.78 µg/mL (≈ 0.714 µM)
MIC (Sarcina lutea ATCC 9341): 0.39 µg/mL (≈ 0.357 µM)
MIC [4]: 25 µg/mL (≈ 22.9 µM)
MIC [6]: 0.78 µg/mL (≈ 0.714 µM)
MIC [7]: 0.78 µg/mL (≈ 0.714 µM)

The remaining molecules from weak to strong by MIC [1], led by results:

MIC [1]: 6.25 µg/mL (≈ 5.8 µM)
MIC [2]: 12.5 µg/mL (≈ 11.6 µM)
MIC [3]: 0.39 µg/mL (≈ 0.362 µM)
MIC (Sarcina lutea ATCC 9341): 0.19 µg/mL (≈ 0.176 µM)
MIC [4]: 12.5 µg/mL (≈ 11.6 µM)
MIC [5]: 12.5 µg/mL (≈ 11.6 µM)
MIC [6]: 0.39 µg/mL (≈ 0.362 µM)
MIC [7]: 0.39 µg/mL (≈ 0.362 µM)
SMILES: CCC1OC(=O)CC(OC(C)=O)C(C)C(OC2OC(C)C(OC3CC(C)(O)C(OC(=O)Cc4cccnc4)C(C)O3)C(N(C)C)C2O)C(CC=O)CC(C)C(=O)C=CC(C)=CC1COC1OC(C)C(O)C(OC)C1OC (stereo not drawn) [Compound 31, 3-acetyl-4"-(3-pyridyl)acetyltylosin]

MIC [1]: 3.13 µg/mL (≈ 2.84 µM)
MIC [2]: 6.25 µg/mL (≈ 5.68 µM)
MIC [3]: 0.39 µg/mL (≈ 0.354 µM)
MIC (Sarcina lutea ATCC 9341): 0.19 µg/mL (≈ 0.173 µM)
MIC [4]: 12.5 µg/mL (≈ 11.4 µM)
MIC [5]: 6.25 µg/mL (≈ 5.68 µM)
MIC [6]: 0.39 µg/mL (≈ 0.354 µM)
MIC [7]: 0.78 µg/mL (≈ 0.709 µM)
SMILES: CCC1OC(=O)CC(O)C(C)C(OC2OC(C)C(OC3CC(C)(O)C(OC(=O)CSc4ccc(Cl)cc4)C(C)O3)C(N(C)C)C2O)C(CC=O)CC(C)C(=O)C=CC(C)=CC1COC1OC(C)C(O)C(OC)C1OC (stereo not drawn) [Compound 37, 4"-(4-chlorophenyl)thioacetyltylosin]

MIC [1]: 3.13 µg/mL (≈ 2.9 µM)
MIC [2]: 6.25 µg/mL (≈ 5.79 µM)
MIC [3]: 0.39 µg/mL (≈ 0.361 µM)
MIC (Sarcina lutea ATCC 9341): 0.19 µg/mL (≈ 0.176 µM)
MIC [4]: 6.25 µg/mL (≈ 5.79 µM)
MIC [5]: 6.25 µg/mL (≈ 5.79 µM)
MIC [6]: 0.39 µg/mL (≈ 0.361 µM)
MIC [7]: 0.39 µg/mL (≈ 0.361 µM)
SMILES: CCC1OC(=O)CC(O)C(C)C(OC2OC(C)C(OC3CC(C)(O)C(OC(=O)Cc4ccc([N+](=O)[O-])cc4)C(C)O3)C(N(C)C)C2O)C(CC=O)CC(C)C(=O)C=CC(C)=CC1COC1OC(C)C(O)C(OC)C1OC (stereo not drawn) [Compound 14, 4"-(4-nitrophenyl)acetyltylosin]

Reference: patent publication US4205163A, “Tylosin derivatives” (Sanraku-Ocean Co., Ltd., priority 1977, dated 1980)
